Experimental data as given in US5545755A, “Therapeutically useful 2-aminotetralin derivatives” (priority 1995, dated 1996).
Where a name gives a salt, the structure may show the parent alone. Read-outs that look alike come from different tables or passages of the source.

What was measured:
dopamine receptors = conditions: cited from earlier work
[1] = Hypothermia in mice after subcutaneous injection; assay type: in vivo; conditions: Mus musculus, sc, dose depressing temperature by 2° C. in two of four mice
Description: Hypothermia: Starting with a dose of 30 mg/kg, four mice are injected subcutaneously with test compound. Twenty minutes later, the number of animals whose body temperature has decreased by 2° C. or more are counted. […] The time for last statistically significant drug affect on mean body temperature is indicated in minutes. […] Potency is given as mg/kg ED50 (dose required to depress temperature in two of four mice) as measured by Spearman-Karber statistics.

[2] = test system: sympathetic nerve discharge; assay: Sympathetic Nerve Discharge (SND) in chloralose anesthetized cats; assay type: in vivo; conditions: Felis catus, iv, dose causing 50% depression in SND
Description: Sympathetic Nerve Discharge (SND): The i.v. mg/kg dose causing a 50% depression in SND in chloralose anesthetized cats and the maximum inhibition of sympathetic activity observed in the dose range tested (0.001-1.0 mg/kg i.v.).

[3] = Blood pressure in chloralose anesthetized cats (BP SND/MAX); assay type: in vivo; conditions: i.v., blood pressure in percent control at the dose causing 50% depression in SND
Description: BP SND/MAX: The blood pressure of the chloralose anesthetized cats in percent control at the dose causing 50% depression in SND and the maximum reduction in blood pressure as percent of the control blood pressure in the same animals observed in the dose range tested (0.001-1.0 mg/kg i.v.).

[4] = target: T1, 5-hydroxytryptamine (5-HT1A) receptor (Bos taurus, UniProt F6Q2H9); assay: Inhibition of 8-OH-DPAT binding in a bovine brain homogenate (5-HT1A binding)
T1 construct: bovine brain homogenate; from tissue; host or cells: bovine brain homogenate
T1 sequence (F6Q2H9 1-422): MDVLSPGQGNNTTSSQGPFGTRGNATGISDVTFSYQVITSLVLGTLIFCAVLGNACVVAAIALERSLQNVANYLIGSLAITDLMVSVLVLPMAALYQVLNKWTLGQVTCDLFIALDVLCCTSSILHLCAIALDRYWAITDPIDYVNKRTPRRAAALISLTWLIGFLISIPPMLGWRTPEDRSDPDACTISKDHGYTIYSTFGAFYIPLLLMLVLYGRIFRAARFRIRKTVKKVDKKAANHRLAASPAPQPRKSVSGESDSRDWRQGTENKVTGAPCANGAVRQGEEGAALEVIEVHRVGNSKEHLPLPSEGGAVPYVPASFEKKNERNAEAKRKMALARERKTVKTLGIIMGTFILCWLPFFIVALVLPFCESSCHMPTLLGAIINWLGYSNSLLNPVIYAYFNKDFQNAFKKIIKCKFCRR
Description: Binding: Inhibition of 8-OH-DPAT binding in a bovine brain homogenate. Potency is given as nM dose required to inhibit 50% of DPAT binding (IC50). This test measures ability to bind to 5-hydroxytryptamine (5-HT1A) receptor.

D2 receptor = D2 receptor (Homo sapiens, UniProt P14416); assay: Dopamine D2 receptor in vitro binding
D2 receptor, sequence (P14416 whole entry): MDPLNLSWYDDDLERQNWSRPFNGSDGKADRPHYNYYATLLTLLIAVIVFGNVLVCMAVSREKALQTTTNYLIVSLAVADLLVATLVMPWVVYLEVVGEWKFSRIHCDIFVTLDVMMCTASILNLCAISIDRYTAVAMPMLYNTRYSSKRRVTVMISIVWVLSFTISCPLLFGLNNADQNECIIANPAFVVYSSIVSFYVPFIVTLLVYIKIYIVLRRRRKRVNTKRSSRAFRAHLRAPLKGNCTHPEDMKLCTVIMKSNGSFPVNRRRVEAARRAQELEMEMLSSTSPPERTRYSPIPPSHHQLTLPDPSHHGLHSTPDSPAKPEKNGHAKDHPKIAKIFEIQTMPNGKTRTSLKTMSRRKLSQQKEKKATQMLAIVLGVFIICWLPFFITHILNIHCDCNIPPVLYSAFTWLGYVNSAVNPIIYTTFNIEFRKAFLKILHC
Description: The compounds of this invention where R1 is in the 8 position in the aromatic ring are very selective 5-HT1A receptor agonists having little or no dopaminergic activity. […] Both these features are beneficial to effective clinical treatment.

[5] = Chem. Ab., 79:146294b; cited from earlier work
[6] = J. Pharm. Sci., 67, 880-82 (1978); cited from earlier work
[7] = some patients; cited from earlier work

For `O=C1CC2(CCCC2)CC(=O)N1CCCCN1CCN(c2ncccn2)CC1` [Buspirone], the dopamine receptor antagonism (dopamine receptors) is given as “antagonizes dopamine receptors at the same dose it stimulates 5-HT1A receptors”.
In the case of `C=CCN[C@@H]1CCc2cccc(OC)c2[C@@H]1CC=C` (relative stereo) [Example 26 Compound 1, Cis-(+-)-1,2,3,4-Tetrahydro-8-methoxy-N,1-di-(2-pro-penyl)-2-naphthalenamine hydrochloride], the ED50 [1] is reported as 2.31 mg/kg, the ED50 [2] is reported as 0.16 mg/kg and the “% BD (at SND ED50)” value [3] is reported as 70.0%.
In the case of `C=CCNC1CCc2cccc(OC)c2C1.Cl` (stereo not shown) [Example 15 Compound 27, 1,2,3,4-Tetrahydro-8-methoxy-N-2-propenyl-2-naphthalenamine hydrochloride], the IC50 [4] is reported as 8.9 nM, the ED50 [1] is reported as 0.31 mg/kg and the ED50 [2] is reported as 0.1 mg/kg. The “% BD (at SND ED50)” value [3] was 62.0%.
Compound `C=CCNC1CCc2cccc(O)c2C1.Cl` (stereo not shown) [Example 19 Compound 2, 5,6,7,8-tetrahydro-7-(2-propenyl)amino-1-naphthalenol hydrochloride] has an IC50 [4] of 3.5 nM, an ED50 [1] of 0.73 mg/kg and an ED50 [2] of 0.01 mg/kg. For the same compound, the “% BD (at SND ED50)” value [3] was 78.0%.
In the case of `C=CCN(C)C1CCc2cccc(OC)c2C1.Cl` (stereo not shown) [Example 15 Compound 12, 1,2,3,4-Tetrahydro-8-methoxy-N-methyl-N-2-propenyl-2-Naphthalenamine hydrochloride], the IC50 [4] is reported as 7.9 nM, the ED50 [1] is reported as 1.2 mg/kg and the ED50 [2] is reported as 0.012 mg/kg. For the same compound, the “% BD (at SND ED50)” value [3] was 79.0%.
Compound `C=CCN(CC=C)C1CCc2ccccc2C1.Cl` (racemic) [Example 21 Compound 6, (+-)-1,2,3,4-Tetrahydro-N,N-di-2-propenyl-2-naphthalenamine hydrochloride] has an IC50 [4] of 50.7 nM, an ED50 [1] of 0.97 mg/kg and an ED50 [2] of 0.6 mg/kg. For the same compound, the “% BD (at SND ED50)” value [3] was 52.0%.
`Brc1cccc2c1CC(N1CCCC1)CC2` (single isomer, unassigned; (+)) [Compound 59-1, (+)-1,2,3,4-tetrahydro-2-pyrrolidino-8-bromo-tetralin] showed an IC50 ([4]; read-out: 5-HT1A Binding IC50) of 4 nM.
With `NC(=O)c1cccc2c1CC(N1CCCC1)CC2` (single isomer, unassigned; (+)) [Compound 60-1, (+)-1,2,3,4-tetrahydro-2-pyrrolidino-naphthalene-8-yl-carboxamide] the IC50 ([4]; read-out: 5-HT1A Binding IC50) was 10.9 nM.
For `NC(=O)c1cccc2c1CC(N1CCCCCC1)CC2` (stereo not shown) [Compound 58-1, (1-Hexahydroazepinyl)-5,6,7,8-tetrahydronaphthalene-1-carboxamide], the IC50 ([4]; read-out: 5-HT1A Binding IC50) was 26 nM, the ED50 [1] was 2.3 mg/kg and the IC50 (D2 receptor) was over 1000 nM.
For `CN(C)C1CCc2ccc(O)cc2C1(C)C` (stereo not shown) [1,1-Dimethyl-2-(N,N-dimethylamino)-7-hydroxytetralin], the “analgesic and intestinal movement accelerating actions” value [5] is given as “analgesic and intestinal movement accelerating actions”.
For `COc1cccc2c1CCC(NC1CC1)C2C` (stereo not shown) [1-methyl-2-(cyclopropylamino)-5-methoxytetralin], the local anesthetic activity [6] is given as “possess local anesthetic activity”.
In the case of `c1ccc2c(c1)CCC(N1CCCCCC1)C2` (stereo not shown) [Compound 57-3, Hexahydro-1-(1,2,3,4-tetrahydro-2-naphthalenyl)-1H-Azepine], the IC50 ([4]; read-out: 5-HT1A Binding IC50) is reported as 103 nM, the ED50 [1] is reported as 2.3 mg/kg and the ED50 [2] is reported as 0.62 mg/kg. The “% BD (at SND ED50)” value [3] was 75.0%.
Work on `CCCN(CC1CC1)C1CCc2cccc(C(N)=O)c2C1` (stereo not shown) [Example 5 Compound 2, 1,2,3,4-Tetrahydro-2-N-cyclopropylmethyl-2-N-propyl-8-yl-carboxamide] yielded an IC50 ([4]; read-out: 5-HT1A Binding IC50) of 13 nM, an ED50 [1] of 0.31 mg/kg and an ED50 [2] of 0.33 mg/kg. The “% BD (at SND ED50)” value [3] was 40.0%.
In the case of `CC1(C)CC(=O)N(CCCCN2CCN(c3ncccn3)CC2)C(=O)C1` [Gepirone], the “effect on depressive endpoints” value [7] is listed as “ameliorative effects on some depressive endpoints in some patients” and the dopamine receptor antagonism (dopamine receptors) is listed as “has dopamine antagonist properties”.
